Patent US20050059645A1, “Methods for the treatment of male and female sexual dysfunction” (priority 2003, published 2005)
Where two headings read alike, the source gives them in different places.

How the values were obtained:
testosterone = conditions: 1 mg/kg i.v., cited from earlier work
LH [1] = test: Plasma LH by radioimmunoassay in orchidectomized male rats; format: in vivo, rat; conditions: for plasma LH level: repeated examination
Method: (§1) Four weeks following orchidectomy, groups of rats were treated with one of the following drug doses via tail vein injection: E2-CDS 0.03, 0.3, and 3 mg/kg. Blood samples were collected by orbital sinus puncture under light ether anesthesia. The samples were stored at 4° C. for one hour and centrifuged at 1,000 g for 10 minutes. Plasma was separated and stored at −80° C. until assayed. Plasma LH concentrations from individual samples were measured by double antibody radioimmunoassay kits obtained from Amersham Pharmacia Biotech, Rome, Italy. […] The limit of detection was 15 pg/ml.
(§2) Behavioral changes were analyzed using the Mann-Whitney U test (Siegel, Nonparametric Statistics for the Behavioral Sciences, New York; McGraw-Hill Book Company, Inc., 1956). The Fisher exact test was used for percentage comparisons (Zar, Biostatistical Analysis, Prentice Hall, Inc., Englewood Cliffs, N.J., 1974). Serum LH data were analyzed for each time and treatment group by analysis of variance (ANOVA) followed by Bonferroni posthoc test.

[2] = female, human, in vivo, 2.5 mg
Excerpt: A brief evaluation of the results follows:
One explanation for this difference might be the difference in the dissolution (and buccal residence) time of the two formulations used in these two different studies.

morphine-dependent rats = conditions: cited from earlier work
LH [3] = conditions: cited from earlier work
LH [4] = conditions: cited from earlier work; remark: listed apart in the source
castrated male rats = test: Male rat copulatory behavior after orchidectomy; format: in vivo
Method: Adult male Sprague Dawley rats (300-400 g) from Charles River Hungary Ltd., Godollo, Hungary, were used. Animals were kept in community cages (4 animals/cage) in a climate-controlled room (23±2° C.), with a 14 hour light, 10 hour dark cycle of artificial lighting, using reversed light/dark cycle. […] These hormones were dissolved in sunflower oil.
After establishment of basal behaviors as discussed below, selected animals were orchidectomized via a single midventral incision and were rehoused.
After repeated testing of animals recovered from orchidectomy as discussed below, rats were divided into four groups and treated intravenously, via a single tail vein injection, with one of the following: group 1: control (27% hydroxypropyl-β-cyclodextrin); group 2: 0.03 mg/kg E2-CDS; group 3: 0.3 mg/kg E2-CDS; and group 4: 3 mg/kg E2-CDS.
Mating was observed during the dark cycle in a plexi observation cage in a room where only a dim red light was on. The male was placed in the observation cage 5 minutes prior to the female.
The following parameters were then measured: • Mount latency (ML): the time from the introduction of the female to the initial mount or intromission; • Intromission latency (IL): the time from introduction of the female to the first intromission; and • Ejaculatory latency (EL): the time from the first intromission to ejaculation.
Sessions were considered negative if IL exceeded 15 minutes.
To establish basal behavior, each male was tested every 5 days until four successive and consistent behavioral patterns were achieved. This pretesting lasted for about four weeks. Approximately half of the animals tested were deemed suitable for orchidectomy.
Twenty-eight days after healing from orchidectomy, the animals were tested again (Day 0) and divided into 4 experimental groups. Only animals displaying ejaculation latencies greater than 15 minutes were included in the study.
Tests of male sexual behavior were conducted 3, 7, 14, 21, 28, 35 and 42 days after drug administration or until the effect disappeared, i.e. until no statistically significant difference was found between groups during two consecutive tests.
Behavioral patterns and related times were recorded manually by skilled observers.
as §1, §2
The testing described above was repeated using a dose of 0.03 mg/kg administered as a single i.v. injection, and a dose of 0.01 mg/kg with daily i.v. administration for 10 days. E2-CDS stock solution (40%) was diluted in 27% HPβCD solution.
The copulatory behavior of E2-CDS treated groups was compared to that of the HPβCD control group at 1, 3, 7, 14, and 21 days after i.v. drug administration in the 0.03 mg/kg group and at 1, 3, 7, 14 and 21 days after initial i.v. drug administration in the 0.01 mg/kg×10 days group.

postmenopausal women = test: Phase I: safety and tolerance (adverse events); conditions: 2.86 mg buccal, both regimens
Method: Even more recently, in a Phase I clinical study of postmenopausal women, two different administration regimens of a 2.86 mg E2-CDS buccal delivery tablet were evaluated for safety and effects on hormone levels. The subjects were 12 healthy postmenopausal volunteers, divided into two groups of six. In Group A, women were dosed once daily for 10 days (10 doses); in Group B, women were dosed once every other day for 13 days (7 doses).

[5] = 3.0 mg/kg single i.v., days 14, 21 and 28

CN1C=CCC(C(=O)O[C@H]2CC[C@H]3[C@@H]4CCc5cc(O)ccc5[C@H]4CC[C@]23C)=C1 [E2-CDS, 17β-[(1-methyl-1,4-dihydro-3-pyridinyl)carbonyloxy]estra-1,3,5(10)-trien-3-ol]
decrease of serum testosterone levels (testosterone; one day after treatment): 99%
suppression of serum testosterone (testosterone; through 14 days post-treatment): more than 96%
plasma LH level (LH [1]; 0.01 mg/kg i.v., 10 daily injections): significantly reduced at the dose of 0.01 mg/kg (10 daily injections) from day 3 to day 14
plasma LH level (LH [1]; 0.03 mg/kg single injection): significantly reduced on day 3 only
plasma LH levels (LH [1]; 0.3 mg/kg single i.v.): significantly reduced the LH levels on days 1, 3, and 7
plasma LH levels (LH [1]; 3 mg/kg single i.v.): suppressed significantly throughout 28 days
Tmax of E2 [2]: 2 h
average Cmax of E2 [2]: 0.1534 ng/mL
naloxone-induced rise in TST (morphine-dependent rats; 1 mg/kg i.v. once weekly for three weeks, tested one week after last injection): significantly attenuated
attenuation of naloxone-induced rise in TST (morphine-dependent rats; single 1 mg/kg i.v., tested one week after injection): 25%
duration of LH suppression (LH [3]; 0.1 mg/kg i.v. in 20% (w/v) HPβCD, castrated female rats (Brewster 1988)): 18 days
LH inhibition (LH [3]; 0.5 mg/kg single i.v., day 12 (Estes 1987, Experiment 3)): heterogeneous results
LH compared to equimolar estradiol 17-valerate (LH [3]; 0.5 mg/kg single i.v., day 12 or 18 (Estes 1987, Experiment 4)): significantly decreased by E2-CDS compared to estradiol valerate
plasma LH (LH [3]; 1.0 mg/kg i.v. single and multiple weekly doses (Rahimy 1991)): significantly suppressed for single and multiple doses
serum LH decrease compared to vehicle (LH [3]; 2 mg/kg single i.v., day 12 (Estes 1987, Experiment 3)): 75%
serum LH decrease compared to vehicle (LH [3]; 5 mg/kg single i.v., day 12 (Estes 1987, Experiment 3)): 91%
reduction in serum LH (LH [3]; multiple i.v. injections (7, every two days) 10 to 333 μg/kg (Anderson 1988)): 32-76%
reduction in serum LH (LH [3]; single i.v. dose 10 μg/kg (Anderson 1988)): no effect
reduction in serum LH (LH [3]; single i.v. dose 33 to 333 μg/kg, 2 days before sacrifice (Anderson 1988)): 39-52%
effects on plasma LH (LH [4]; 1280 μg single i.v. dose group): substantial and sustained decreases
effects on plasma LH (LH [4]; 10-40 μg single i.v. dose group): Minimal effects
effects on plasma LH (LH [4]; 80-640 μg single i.v. dose group): threshold effects
time through which LH was lowered in a clinically meaningful way (LH [4]; single 1280 μg i.v. dose, one post-menopausal volunteer): 96 h
effect on copulatory behavior (castrated male rats; 0.03 mg/kg single i.v., first study): no statistically significant effect
sexual activity (castrated male rats; 0.03 mg/kg single i.v., repeated study): improved sexual activity, but it was not statistically significant in any observations
mount frequency (castrated male rats; 0.3 mg/kg single i.v.): significantly increased on day 7
mount latency (castrated male rats; 0.3 mg/kg single i.v.): sharply reduced from day 7 through day 28
intromission performance (castrated male rats; 3.0 mg/kg single i.v.): improved in a statistically significant manner from day 14 through day 28
mount latency (castrated male rats; 3.0 mg/kg single i.v.): sharply reduced from day 7 through day 28
intromission frequency (castrated male rats; [5]): statistically significant increase in intromission frequency
intromission latency (castrated male rats; [5]): decrease in intromission latency
effect on re-establishment of copulatory behavior (castrated male rats; 0.3 and 3.0 mg/kg single i.v.): significant at doses of 0.3 and 3.0 mg/kg through day 28
severity of adverse events (postmenopausal women): All AEs were mild or moderate, no serious AE was observed
